Experimental data published in ChEMBL document CHEMBL3301361, “Experimental in vitro DMPK and physicochemical data on a set of publicly disclosed compounds”.
≈ marks a conversion by molar mass, not a printed value.

Tests used:
physchem [1] = conditions: octan-1-ol/water, pH 7.4
physchem [2] = conditions: pH 7.4 buffer

Row | Compound | solubility thermodynamic (physchem [2]) | logD (physchem [1])
1 | Cc1c(Cl)cccc1S(=O)(=O)Nc1nc(CC(=O)N2CCN(C)CC2)cs1 | 1100 µM (≈ 470 µg/mL) | 0.57
2 | CC1(C)Oc2ncnc(N)c2N=C1c1ccc(C23CC4CC(CC(CC(=O)O)(C4)C2)C3)cc1 | 79.4 µM (≈ 35.5 µg/mL) | –
3 | Cc1nc(-c2ccccc2)c(-c2ccc(CN3CCC(n4c(=O)[nH]c5ccccc54)CC3)cc2)[nH]c1=O | 27.5 µM (≈ 13.5 µg/mL) | 3.9
4 | Cc1c(NC(=O)OC[C@@H]2COCCN2)cn2ncnc(Nc3ccc4c(cnn4Cc4cccc(F)c4)c3)c12 [AC-480] | 1.7 µM (≈ 0.902 µg/mL) | –
5 | CCN1CCN(Cc2ccc(-c3cc4c(N[C@H](C)c5ccccc5)ncnc4[nH]3)cc2)CC1 [AEE-788] | 58.9 µM (≈ 26 µg/mL) | –
6 | Cc1cccc(-c2ccc3c(c2)c(C(=O)C(=O)O)cn3Cc2ccc(C(C)(C)C)cc2)c1 [ALEPLASININ] | 363 µM (≈ 155 µg/mL) | –
7 | COc1cc2ncnc(Nc3ccc(NC(=O)c4ccccc4)cc3)c2cc1OC [ANILINOQUINAZOLINE1] | 10 µM (≈ 4 µg/mL) | –
8 | COc1ccc(Cl)c(Nc2ncnc3cc(OCC4CCN(C)CC4)c(OC)cc23)c1 [AZM-475271] | 324 µM (≈ 143 µg/mL) | –
9 | Cc1c(-c2ccc(O)cc2)n(Cc2ccc(OCCN3CCCCCC3)cc2)c2ccc(O)cc12 [BAZEDOXIFENE] | 5.2 µM (≈ 2.45 µg/mL) | –
10 | c1ccc(-c2ccc(C(c3ccccc3)n3ccnc3)cc2)cc1 (stereo not given) [BIFONAZOLE] | 1.1 µM (≈ 0.341 µg/mL) | –
11 | COc1ccc(/C=C\c2cc(OC)c(OC)c(OC)c2)cc1O [COMBRETASTATIN A4] | 144 µM (≈ 45.7 µg/mL) | –
12 | COCC(=O)NC/C=C/c1ccc2ncnc(Nc3ccc(Oc4ccc(C)nc4)c(C)c3)c2c1 [CP-724714] | 1.1 µM (≈ 0.516 µg/mL) | –
13 | CN(C)C(=O)Nc1ccc(Cl)c(Cl)c1 [DCMU] | 132 µM (≈ 30.7 µg/mL) | –
14 | CCC[C@@H]1O[C@@H]2C[C@H]3[C@@H]4CCC5=CC(=O)C=C[C@]5(C)[C@H]4[C@@H](O)C[C@]3(C)[C@]2(C(=O)CO)O1 [DEXBUDESONIDE] | 19.5 µM (≈ 8.4 µg/mL) | –
15 | CC/C(=C(/CC)c1ccc(O)cc1)c1ccc(O)cc1 [DIETHYLSTILBESTROL] | 25.1 µM (≈ 6.74 µg/mL) | –
16 | CN1CCN(c2ccc3nc(-c4c(N)c5c(F)cccc5[nH]c4=O)[nH]c3c2)CC1 [DOVITINIB] | 8.3 µM (≈ 3.26 µg/mL) | –
17 | O=C1NCNC1(c1ccccc1)c1ccccc1 [DOXENITOIN] | 316 µM (≈ 75.3 µg/mL) | –
18 | CC1(C)C=Cc2c(O)nc3ccccc3c2O1 [FLINDERSINE] | 67.6 µM (≈ 15.4 µg/mL) | –
19 | COc1ccc(/C=C\c2cc(OC)c(OC)c(OC)c2)cc1NC(=O)[C@@H](N)CO [OMBRABULIN] | 1510 µM (≈ 609 µg/mL) | –
20 | c1ccc2c(c1)Nc1ccccc1S2 [PHENOTHIAZINE] | 2.9 µM (≈ 0.578 µg/mL) | –
21 | O=C(Nc1ccccc1)Nc1cnns1 [THIDIAZURON] | 178 µM (≈ 39.2 µg/mL) | –
22 | Cn1cncc1[C@@](N)(c1ccc(Cl)cc1)c1ccc2c(c1)c(-c1cccc(Cl)c1)cc(=O)n2C [TIPIFARNIB] | 9.5 µM (≈ 4.65 µg/mL) | –
23 | O=c1c2ccccc2oc2ccccc12 [XANTHONE] | 20 µM (≈ 3.92 µg/mL) | –

Second part, led by results:

Row | solubility thermodynamic (physchem [2]) | Compound | logD (physchem [1])
24 | 87.1 µM (≈ 22.4 µg/mL) | COc1ccc2[nH]c(=O)c3c(c2c1)OC(C)(C)C=C3 [HAPLAMINE] | –
25 | 417 µM (≈ 122 µg/mL) | NC(=O)c1ccc(I)c([N+](=O)[O-])c1 [INIPARIB] | –
26 | 0.2 µM (≈ 0.0834 µg/mL) | CCCNC(=O)Nc1ccc(Oc2ncnc3cc(OC)c(OC)cc23)cc1Cl [KRN-633] | –
27 | 7.1 µM (≈ 2.81 µg/mL) | O=c1cc(-c2cccc3c2Sc2ccccc2S3)oc(N2CCOCC2)c1 [KU-55933] | –
28 | 44.7 µM (≈ 16.7 µg/mL) | CC1(C)CNc2cc(NC(=O)c3cccnc3NCc3ccncc3)ccc21 [MOTESANIB] | –
29 | 1000 µM (≈ 335 µg/mL) | COc1c(C)c2c(c(O)c1C/C=C(\C)CCC(=O)NO)C(=O)OC2 [MYCOPHENOLIC HYDROXAMIC ACID] | –
30 | 60.3 µM (≈ 26.9 µg/mL) | CNC(=O)c1c(-c2ccc(F)cc2)oc2cc(N(CCO)S(C)(=O)=O)c(C3CC3)cc12 [NESBUVIR] | –
31 | 1.1 µM (≈ 0.582 µg/mL) | Cc1cn(-c2cc(NC(=O)c3ccc(C)c(Nc4nccc(-c5cccnc5)n4)c3)cc(C(F)(F)F)c2)cn1 [NILOTINIB] | –
32 | 2.1 µM (≈ 0.809 µg/mL) | COC(=O)C1=C(C#N)NC(C)=C(C(=O)OC(C)C)C1c1cccc([N+](=O)[O-])c1 (stereo not given) [NILVADIPINE] | –
33 | 1.5 µM (≈ 0.702 µg/mL) | CCOc1cc2ncc(C#N)c(Nc3ccc(F)c(Cl)c3)c2cc1NC(=O)/C=C/CN(C)C [PELITINIB] | –
34 | 28.8 µM (≈ 9.52 µg/mL) | C[C@@H](Nc1ncnc2[nH]c(-c3ccc(O)cc3)cc12)c1ccccc1 [PKI-166] | –
35 | 69.2 µM (≈ 29.3 µg/mL) | CC1(C)SCCN(S(=O)(=O)c2ccc(Oc3ccncc3)cc2)[C@H]1C(=O)NO [PRINOMASTAT] | –
36 | 1290 µM (≈ 400 µg/mL) | COc1cc(NS(=O)(=O)c2ccc(N)cc2)nc(OC)n1 [SULFADIMETHOXINE] | –
37 | 0.3 µM (≈ 0.123 µg/mL) | CNC(=O)c1cc(COc2nnc(Nc3ccc(Cl)cc3)c3ccoc23)ccn1 [TELATINIB] | –
38 | 224 µM (≈ 48.4 µg/mL) | O=C1NC(=O)C2(CCc3ccccc3C2)N1 (stereo not given) [TETRANTOIN] | –
39 | 155 µM (≈ 40 µg/mL) | O=C1CCC(N2C(=O)c3ccccc3C2=O)C(=O)N1 (stereo not given) [THALIDOMIDE] | –
40 | 112 µM (≈ 39.1 µg/mL) | Cc1c(Cc2ccc3ccccc3n2)c2cc(F)ccc2n1CC(=O)O [TIMAPIPRANT] | –
41 | 9.3 µM (≈ 4.23 µg/mL) | COc1cc2nccc(Oc3ccc(NC(=O)Nc4cc(C)on4)c(Cl)c3)c2cc1OC [TIVOZANIB] | –
42 | 1230 µM (≈ 325 µg/mL) | O=C(CCCCCCC(=O)Nc1ccccc1)NO [VORINOSTAT] | –
43 | 4.4 µM (≈ 0.802 µg/mL) | c1ccc2c(c1)Cc1ccccc1O2 [XANTHENE] | –
